# From US20060128699A1, “Novel pharmacophore for the discovery and testing of na,k-atpase inhibitor compositions and methods for their use in treating cardiovascular diseases and conditions” (priority 2002, published 2006)
# Where “and” joins values, the source holds several entries; their conditions need not be identical. Equal values may be shown once.
# How the values were obtained:
# [1] = biological target: rat 1α-subunit of the Na, K-ATPase (Rattus norvegicus, UniProt P06685); settings: cited from earlier work
# [2] = biological target: human 1α-subunit of the Na, K-ATPase (Homo sapiens, UniProt P05023); settings: cited from earlier work
# [3] = biological target: sheep 1α-subunit of the Na, K-ATPase, D121N mutant (Ovis aries, UniProt P04074, D126N); settings: D121N versus wild-type sheep; cited from earlier work
# [4] = biological target: sheep 1α-subunit of the Na, K-ATPase, Q111R and N122D mutant (Ovis aries, UniProt P04074, N127D/Q116R); settings: Q111R and N122D versus wild-type sheep catalytic subunit; cited from earlier work
# Na, K-ATPase [5] = biological target: T1, Na, K-ATPase (Ovis aries, UniProt P04074); assay: NKA assay started by addition of ATP; format: biochemical, lamb; settings: for ratio (digoxin) / IC50: assay started by addition of ATP; for ratio (digoxin): IC50_aver. relative to digoxin
# T1 construct: Na, K-ATPase will be purified from the outer medulla of frozen lamb kidney; from tissue; host or cells: outer medulla of frozen lamb kidney
# Na, K-ATPase [6] = biological target: T1, Na, K-ATPase; assay: NKA assay started by addition of KCl; format: biochemical, lamb; settings: for ratio (digoxin): IC50_aver. relative to digoxin
# [7] = determination 1, read-out: IC50_1
# [8] = determination 2, read-out: IC50_2
# [9] = determination 3, read-out: IC50_3
# [10] = assay started by addition of KCl
# [11] = assay started by addition of KCl, average, read-out: IC50_aver.
# [12] = assay started by addition of KCl, determination 1, read-out: IC50_1
# [13] = assay started by addition of KCl, determination 2, read-out: IC50_2
"IC50 (Na, K-ATPase [5]; average, read-out: IC50_aver.)","IC50 (Na, K-ATPase [5]; [8])",Compound,"ratio (digoxin) (Na, K-ATPase [5])","IC50 (Na, K-ATPase [5]; [7])","IC50 (Na, K-ATPase [5]; [9])","ratio (digoxin) (Na, K-ATPase [6]; [10])","ATPase inhibition (in words) (Na, K-ATPase [5])",also measured
–,–,C[C@@H]1O[C@@H](O[C@H]2C[C@@H](O)[C@]3(CO)[C@H]4[C@H](O)C[C@]5(C)[C@@H](C6=CC(=O)OC6)CC[C@]5(O)[C@@H]4CC[C@]3(O)C2)[C@H](O)[C@H](O)[C@H]1O [ouabain],–,–,–,–,–,sensitivity to ouabain inhibition (in words) ([1]; rat subunit): insensitive; loss in ouabain inhibition ([1]; rat α1-subunit): ~1000 fold; sensitivity to ouabain (in words) [2]: sensitive; decrease in sensitivity to ouabain [3]: 1000 fold; less sensitive to ouabain than wild-type [4]: 1150 fold
203 µM,102 µM,COc1cccc2c1Sc1ccccc1C(=O)C2 [Compound 27],497,386 µM,120 µM,–,–,–
70.6 µM,76.8 µM,"CC(CCc1ccc(O)cc1)NCCc1ccc(O)c(O)c1 (stereo not shown) [Compound 25, R—S Dobutamine]",173,64.4 µM,–,–,–,–
270 µM,253 µM,"Oc1cc(O)c2c(c1)O[C@H](c1ccc(O)c(O)c1)[C@@H](O)C2 [Compound 9, (+)-Catechin Hydrate]",664,287 µM,–,–,–,–
359 µM and 38.1 µM,42.5 µM,COc1cc2c(c(OC)c1)Sc1ccccc1C(=O)C2 [Compound 28],–,–,36.3 µM,6764,strong ATPase inhibition,"IC50 (Na, K-ATPase [6]; [11]): 67.6 µM; IC50 (Na, K-ATPase [6]; [12]): 75.6 µM; IC50 (Na, K-ATPase [6]; [13]): 59.7 µM; IC50 (Na, K-ATPase [5]; determination 4, read-out: IC50_4): 145 µM"

Compound,"IC50 (Na, K-ATPase [5]; average, read-out: IC50_aver.)","IC50 (Na, K-ATPase [5]; [8])","ratio (digoxin) (Na, K-ATPase [5])","IC50 (Na, K-ATPase [5]; [7])","IC50 (Na, K-ATPase [5]; [9])","ratio (digoxin) (Na, K-ATPase [6]; [10])","ATPase inhibition (in words) (Na, K-ATPase [5])",also measured
"Cc1cc(O)c2c(c1)C(=O)c1cc(O)cc(O)c1C2=O [Compound 15, Emodin]",89.8 µM,75.5 µM,220,32.2 µM,162 µM,–,–,–
Lacmoid [Compound 19],13.4 µM,192 µM,32.9,11.2 µM,9.7 µM,340,strong ATPase inhibition,"IC50 (Na, K-ATPase [6]; [11]): 3.4 µM; IC50 (Na, K-ATPase [6]; [12]): 3.55 µM; IC50 (Na, K-ATPase [6]; [13]): 3.25 µM"
"O=C1C=CC2C(=C1[N+](=O)[O-])Oc1c(ccc(O)c1[N+](=O)[O-])C2c1ccccc1C(=O)O (stereo not shown) [Compound 14, 4′-5′ Di nitroflorescein]",8.75 µM,8.87 µM,21.5,5.69 µM,11.7 µM,869,strong ATPase inhibition,"IC50 (Na, K-ATPase [6]; IC50_1, assay started by addition of KCl, determination 1): 7.81 µM; IC50 (Na, K-ATPase [6]; IC50_2, assay started by addition of KCl, determination 2): 9.53 µM; IC50 (Na, K-ATPase [6]; IC50_aver., assay started by addition of KCl, average): 8.69 µM"
